Results reported in patent publication US11718604B2, “4-amino-6-(1,3-benzodioxole)picolinates and their use as herbicides” (Dow AgroSciences LLC, priority 2018, dated 2023).

Legend:
Format in all cases: in vivo
[1] = test system: ABUTH: velvetleaf (Abutilon theophrasti); assay: Post-emergent herbicidal test, velvetleaf; conditions: post-emergence, 336 h, 14 days after application, read-out: Visual Growth Reduction (%) 14 Days After Application ABUTH; for pest or weed control at 17.5 g/ha: 17.5 g ai/ha; for pest or weed control at 35 g/ha: 35 g ai/ha; for pest or weed control at 70 g/ha: 70 g ai/ha; for pest or weed control at 140 g/ha: 140 g ai/ha
How it was run: (§1)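 Greenhouse-grown plants at the first or second true leaf stage (7-21 d, ~15 h photoperiod, 23-29° C day) were sprayed overhead at 187 L/ha with compound in acetone/DMSO-based spray solution containing crop oil concentrate and surfactant. Injury was scored visually after 14 d, 0-100% versus untreated plants.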

[2] = test system: BRSNN: oilseed rape, canola (Brassica napus); assay: Post-emergent herbicidal test, oilseed rape; conditions: post-emergence, 336 h, 14 days after application, read-out: Visual Growth Reduction (%) 14 Days After Application BRSNN; for pest or weed control at 17.5 g/ha: 17.5 g ai/ha; for pest or weed control at 35 g/ha: 35 g ai/ha; for pest or weed control at 70 g/ha: 70 g ai/ha; for pest or weed control at 140 g/ha: 140 g ai/ha
How it was run: as §1

[3] = test system: CIRAR: Canada thistle (Cirsium arvense); assay: Post-emergent herbicidal test, Canada thistle; conditions: post-emergence, 336 h, 14 days after application, read-out: Visual Growth Reduction (%) 14 Days After Application CIRAR; for pest or weed control at 17.5 g/ha: 17.5 g ai/ha; for pest or weed control at 35 g/ha: 35 g ai/ha; for pest or weed control at 70 g/ha: 70 g ai/ha; for pest or weed control at 140 g/ha: 140 g ai/ha
How it was run: as §1

[4] = test system: EPHHL: wild poinsettia (Euphorbia heterophylla); assay: Post-emergent herbicidal test, wild poinsettia; conditions: post-emergence, 336 h, 14 days after application, read-out: Visual Growth Reduction (%) 14 Days After Application EPHHL; for pest or weed control at 17.5 g/ha: 17.5 g ai/ha; for pest or weed control at 35 g/ha: 35 g ai/ha; for pest or weed control at 70 g/ha: 70 g ai/ha; for pest or weed control at 140 g/ha: 140 g ai/ha
How it was run: as §1

[5] = test system: IPOHE: ivyleaf morningglory (Ipomoea hederacea); assay: Post-emergent herbicidal test, ivyleaf morningglory; conditions: post-emergence, 336 h, 14 days after application, read-out: Visual Growth Reduction (%) 14 Days After Application IPOHE; for pest or weed control at 17.5 g/ha: 17.5 g ai/ha; for pest or weed control at 35 g/ha: 35 g ai/ha; for pest or weed control at 70 g/ha: 70 g ai/ha; for pest or weed control at 140 g/ha: 140 g ai/ha
How it was run: as §1

[6] = test system: VIOTR: wild violet (Viola tricolor); assay: Post-emergent herbicidal test, wild violet; conditions: post-emergence, 336 h, 14 days after application, read-out: Visual Growth Reduction (%) 14 Days After Application VIOTR; for pest or weed control at 17.5 g/ha: 17.5 g ai/ha; for pest or weed control at 35 g/ha: 35 g ai/ha; for pest or weed control at 70 g/ha: 70 g ai/ha; for pest or weed control at 140 g/ha: 140 g ai/ha
How it was run: as §1

[7] = test system: CYPES: yellow nutsedge (Cyperus esculentus); assay: Post-emergent herbicidal test, yellow nutsedge; conditions: post-emergence, 336 h, 14 days after application, read-out: Visual Growth Reduction (%) 14 Days After Application CYPES; for pest or weed control at 17.5 g/ha: 17.5 g ai/ha; for pest or weed control at 35 g/ha: 35 g ai/ha; for pest or weed control at 70 g/ha: 70 g ai/ha; for pest or weed control at 140 g/ha: 140 g ai/ha
How it was run: as §1

[8] = test system: DIGSA: large crabgrass (Digitaria sanguinalis); assay: Post-emergent herbicidal test, large crabgrass; conditions: post-emergence, 336 h, 14 days after application, read-out: Visual Growth Reduction (%) 14 Days After Application DIGSA; for pest or weed control at 17.5 g/ha: 17.5 g ai/ha; for pest or weed control at 35 g/ha: 35 g ai/ha; for pest or weed control at 70 g/ha: 70 g ai/ha; for pest or weed control at 140 g/ha: 140 g ai/ha
How it was run: as §1

[9] = test system: ECHCG: barnyardgrass (Echinochloa crus-galli); assay: Post-emergent herbicidal test, barnyardgrass; conditions: post-emergence, 336 h, 14 days after application, read-out: Visual Growth Reduction (%) 14 Days After Application ECHCG; for pest or weed control at 17.5 g/ha: 17.5 g ai/ha; for pest or weed control at 35 g/ha: 35 g ai/ha; for pest or weed control at 70 g/ha: 70 g ai/ha; for pest or weed control at 140 g/ha: 140 g ai/ha
How it was run: as §1

[10] = test system: SETFA: giant foxtail (Setaria faberi); assay: Post-emergent herbicidal test, giant foxtail; conditions: post-emergence, 336 h, 14 days after application, read-out: Visual Growth Reduction (%) 14 Days After Application SETFA; for pest or weed control at 17.5 g/ha: 17.5 g ai/ha; for pest or weed control at 35 g/ha: 35 g ai/ha; for pest or weed control at 70 g/ha: 70 g ai/ha; for pest or weed control at 140 g/ha: 140 g ai/ha
How it was run: as §1

[11] = test system: SORVU: shattercane (Sorghum bicolor); assay: Post-emergent herbicidal test, shattercane; conditions: post-emergence, 336 h, 14 days after application, read-out: Visual Growth Reduction (%) 14 Days After Application SORVU; for pest or weed control at 17.5 g/ha: 17.5 g ai/ha; for pest or weed control at 35 g/ha: 35 g ai/ha; for pest or weed control at 70 g/ha: 70 g ai/ha; for pest or weed control at 140 g/ha: 140 g ai/ha
How it was run: as §1

## COC(=O)c1nc(-c2ccc(Cl)c3c2OC(F)(F)O3)c(Cl)c(N)c1Cl [Compound 13]
[1]
  pest or weed control at 17.5 g/ha: 30%
  pest or weed control at 35 g/ha: 50%
  pest or weed control at 70 g/ha: 75%
  pest or weed control at 140 g/ha: 80%
[2]
  pest or weed control at 17.5 g/ha: 40%
  pest or weed control at 35 g/ha: 60%
  pest or weed control at 70 g/ha: 70%
  pest or weed control at 140 g/ha: 80%
[3]
  pest or weed control at 17.5 g/ha: 50%
  pest or weed control at 35 g/ha: 60%
  pest or weed control at 70 g/ha: 80%
  pest or weed control at 140 g/ha: 85%
[4]
  pest or weed control at 17.5 g/ha: 0%
  pest or weed control at 35 g/ha: 0%
  pest or weed control at 70 g/ha: 0%
  pest or weed control at 140 g/ha: 0%
[5]
  pest or weed control at 17.5 g/ha: 0%
  pest or weed control at 35 g/ha: 10%
  pest or weed control at 70 g/ha: 20%
  pest or weed control at 140 g/ha: 30%
[6]
  pest or weed control at 17.5 g/ha: 0%
  pest or weed control at 35 g/ha: 0%
  pest or weed control at 70 g/ha: 0%
  pest or weed control at 140 g/ha: 0%
[7]
  pest or weed control at 17.5 g/ha: 0%
  pest or weed control at 35 g/ha: 0%
  pest or weed control at 70 g/ha: 0%
  pest or weed control at 140 g/ha: 0%
[8]
  pest or weed control at 17.5 g/ha: 0%
  pest or weed control at 35 g/ha: 0%
  pest or weed control at 70 g/ha: 0%
  pest or weed control at 140 g/ha: 0%
[9]
  pest or weed control at 17.5 g/ha: 0%
  pest or weed control at 35 g/ha: 0%
  pest or weed control at 70 g/ha: 0%
  pest or weed control at 140 g/ha: 0%
[10]
  pest or weed control at 17.5 g/ha: 0%
  pest or weed control at 35 g/ha: 0%
  pest or weed control at 70 g/ha: 0%
  pest or weed control at 140 g/ha: 0%
[11]
  pest or weed control at 17.5 g/ha: 0%
  pest or weed control at 35 g/ha: 0%
  pest or weed control at 70 g/ha: 0%
  pest or weed control at 140 g/ha: 0%

## Nc1c(F)c(-c2ccc(Cl)c3c2OC(F)(F)O3)nc(C(=O)O)c1Cl [Compound 14]
[1]
  pest or weed control at 17.5 g/ha: 43%
  pest or weed control at 35 g/ha: 53%
  pest or weed control at 70 g/ha: 73%
  pest or weed control at 140 g/ha: 80%
[2]
  pest or weed control at 17.5 g/ha: 90%
  pest or weed control at 35 g/ha: 95%
  pest or weed control at 70 g/ha: 98%
  pest or weed control at 140 g/ha: 100%
[3]
  pest or weed control at 17.5 g/ha: 78%
  pest or weed control at 35 g/ha: 83%
  pest or weed control at 70 g/ha: 85%
  pest or weed control at 140 g/ha: 90%
[4]
  pest or weed control at 17.5 g/ha: 0%
  pest or weed control at 35 g/ha: 0%
  pest or weed control at 70 g/ha: 0%
  pest or weed control at 140 g/ha: 10%
[5]
  pest or weed control at 17.5 g/ha: 3%
  pest or weed control at 35 g/ha: 3%
  pest or weed control at 70 g/ha: 8%
  pest or weed control at 140 g/ha: 13%
[6]
  pest or weed control at 17.5 g/ha: 5%
  pest or weed control at 35 g/ha: 13%
  pest or weed control at 70 g/ha: 43%
  pest or weed control at 140 g/ha: 58%
[7]
  pest or weed control at 17.5 g/ha: 0%
  pest or weed control at 35 g/ha: 10%
  pest or weed control at 70 g/ha: 30%
  pest or weed control at 140 g/ha: 50%
[8]
  pest or weed control at 17.5 g/ha: 0%
  pest or weed control at 35 g/ha: 0%
  pest or weed control at 70 g/ha: 0%
  pest or weed control at 140 g/ha: 5%
[9]
  pest or weed control at 17.5 g/ha: 0%
  pest or weed control at 35 g/ha: 0%
  pest or weed control at 70 g/ha: 0%
  pest or weed control at 140 g/ha: 5%
[10]
  pest or weed control at 17.5 g/ha: 0%
  pest or weed control at 35 g/ha: 0%
  pest or weed control at 70 g/ha: 0%
  pest or weed control at 140 g/ha: 0%
[11]
  pest or weed control at 17.5 g/ha: 0%
  pest or weed control at 35 g/ha: 3%
  pest or weed control at 70 g/ha: 13%
  pest or weed control at 140 g/ha: 30%
